Patent publication US5093320A, “Novel peptides inhibiting the maturation of t-lymphocytes and the activity of macrophages, pharmaceutical compositions containing them and process for preparing same” (priority 1989, dated 1992)
Where two headings read alike, the source gives them in different places. Positions of bridges follow the written chain, without caps; N, C: chain ends. Residues, ends and D or L forms follow the SMILES beside them. Chains are numbered I, II in the order given.

Tests used:
[1] = tested on: antibody-producing cells; assay: Effect on the antibody-producing cells in newborn rats (plaque-forming cell count of splenocytes); type: in vivo, Wistar (LATI) rats; conditions: 1 mg/kg i.p. within 12 hours of birth, immunized day 14 with sheep erythrocytes, splenocytes 7 days later, vs untreated control
Method: This investigation was carried out with splenocytes obtained from newborn rats according to the method of Canningham (Handbook of Experimental Immunology, Ed. D. M. Weir, Vol. 2., Blackwell, Oxford-London, page 285, 1978). Twelve Wistar (LATI) rats arising from a single litter were intraperitoneally (i.p.) treated with 7.5 μg of test substance in a dose of 1 mg/kg within 12 hours of their birth. On the 14th day after birth, the animals were i.p. immunized by 0.5 ml of an 1% suspension of sheep erythrocytes, then bled by decapitation after 7 days. From the splenocytes obtained from the animals, a homogeneous suspension was prepared using sheep erythrocyte suspension and complement which was then put into a chamber suitable for obtaining a monocellular layer. The chambers closed with paraffin were incubated at 37° C. for 45 minutes. Around the antibody-producing splenocytes, lytic areas, the so-called plaques, were formed. Under the effect of treatment with the suppressing substances, the number of the plaque-forming cells (PFC) was decreased. The data summarized in Table 1 illustrate this percentage decrease calculated on the basis of the cells obtained from the untreated control animals.

[2] = tested on: late hypersensitive (DTH) response; type: in vivo, CFLP (LATI) mice; conditions: mice sensitized with oxazolone
Method: This test was carried out on male CFLP (LATI) mice weighing 25 to 30 g. At the beginning of the experiment, the mice were treated with a 3% solution of oxazolone in anhydrous ethanol by applying 20 μl of solution each on both ears and forepaws. […] The controls were treated only with saline. On day 10 of the experiment, 20 μl of an 2.5% olive oil solution of oxazolone were smeared on each ear of the animals. The thickness of the ears was twice measured, i.e. before and 24 hours after the administration of the antigen. The thickness was measured on both ears in the middle of the ear-lobes with an accuracy of 0.01 mm. The change was compared with the control group. The data concerning the suppression of the development of a DTH response are given as percentage values in Table 4.

[3] = tested on: resting macrophages; type: in vivo, CFLP (LATI) mice; conditions: mice
Method: The phagocytating capacity of resting macrophage cells was investigated on mice [J. Immunopharmacol. 4, 265 (1982-1983)]. […] After bleeding the animals, their peritonea were washed with 8 ml of PBS buffer solution (phosphate buffered saline, pH=7.2) each containing 10 IU of heparin. The cell suspension washed out from the peritoneum was made free of the erythrocytes by shocking with distilled water, then washed 3 times with PBS buffer solution. The sedimentation between two washings was achieved by centrifuging at 1000 rpm for 5 minutes. The concentration of each cell suspension was adjusted to 10^6 cell/ml and the suspension was settled for 30 minutes in a Boyden-chamber at 37° C. in an atmosphere containing 5% of carbon dioxide. Over the macrophages adhered to the glass wall, opsonized yeast was layered. After removing the non-phagocytated particles, those incorporated by the macrophages were counted in each cell. In Table 3, the percentage of decrease in the count of phagocytated yeast cells is given in relation to the macrophages isolated from the untreated animals as control.

[4] = therapeutic dose does not significantly differ from the toxic one; cited from earlier work
[5] = tested on: primary antibody production; assay: Effect on the primary antibody production in newborn rats (haemagglutinin titre); type: in vivo, Wistar (LATI) rats; conditions: 1 mg/kg i.p. within 12 hours after birth, haemagglutinin titre on day 7 following immunization with sheep erythrocytes
Method: This study is based on the phenomenon of agglutination. A specific antiserum adheres to the surface of the antigen forming large granules which settle rapidly (agglutinate).
Newborn Wistar (LATI) rats were intraperitoneally (i.p.) treated with an 1 mg/kg dose of the test substance within 12 hours after birth. On the 14th day, the animals were i.p. immunized by 0.5 ml of an 1% suspension of sheep erythrocytes. On day 7 following the immunization, blood was taken retroorbitally, after 30 minutes the sera were separated by centrifuging and the haemagglutinin titre was determined according to the method of Takatsy [Acta Microbiol. Acad. Sci. Hung. 3, 191 (1955)]. From the mixed sera (50 μl) of two rats, halving dilutions were prepared in 12 steps. Each sample was given 25 /ul of a 2% suspension of sheep erythroxytes The mixture was incubated at 37° C. for one hour to evaluate the agglutination. The data are summarized in Table 2 which show the suppressing (inhibitory) effect of the compounds on the primary antibody production as a percentage value in relation to the untreated animals. Immunostimulating substances show just the opposite effect in this test.

[6] = 1 mg/kg i.p. on day 7, ear thickness 24 hours after antigen on day 10, vs saline control
[7] = 1 mg/kg s.c. daily for 7 days, count of phagocytated yeast cells vs untreated animals

| Compound | Suppression of the antibody production, Change % (number of plaque-forming cells) [1] [%] | Suppression of the DTH response, Suppression % [2, 6] [%] | Change in the phagocytating capacity of resting macrophages, Change % [3, 7] [%] | further results |
| --- | --- | --- | --- | --- |
| C[C@@H](O)[C@H](NC(=O)[C@H](CCC(=O)O)NC(=O)[C@@H](N)CCCCN)C(=O)O [(16), Lys-Glu-Thr] (H-Lys-Glu-Thr-OH) | -36.8 | 27.5 | – | – |
| C[C@@H](O)[C@H](NC(=O)[C@H](CO)NC(=O)[C@H](CO)NC(=O)[C@@H](N)CO)C(=O)O [(15), Ser-Ser-Ser-Thr] (H-SSST-OH) | – | 18.0 | – | – |
| CC(C)C[C@H](NC(=O)[C@H](CCCCN)NC(=O)[C@@H](N)CO)C(=O)O [(14), Ser-Lys-Leu] (H-Ser-Lys-Leu-OH) | – | 22.7 | -14.0 | – |
| C[C@@H](O)[C@H](NC(=O)[C@H](CCC(=O)O)NC(=O)[C@@H](NC(=O)[C@@H](N)CCCCN)[C@@H](C)O)C(=O)O [(17), Lys-Thr-Glu-Thr] (H-KTET-OH) | -23.2 | 35.5 | -17.5 | – |
| CC(C)C[C@H](NC(=O)[C@H](CCCCN)NC(=O)[C@H](CO)NC(=O)[C@@H](N)CCCCN)C(=O)O [(13), Lys-Ser-Lys-Leu] (H-KSKL-OH) | – | 28.2 | – | – |
| Cn1cnc([N+](=O)[O-])c1Sc1ncnc2nc[nH]c12 [azathioprin, 6-(1-methyl-4-nitro-5-imidazolylthio)purine] | – | – | – | therapeutic index [4]: below 10 |
| O=P1(N(CCCl)CCCl)NCCCO1 (stereo not drawn) [Cyclophosphamide, 2-[-bis(2-chloroethyl)amino]-tetrahydro-2H-1,3,2-oxazaphosphorine-2-oxide, reference compound] | – | – | – | Change in the phagocytating capacity of resting macrophages, Change % ([3]; 150 mg/kg i.p. dose): -75.0%; Suppression of the DTH response, Suppression % ([2]; 150 mg/kg i.p. dose): 72%; therapeutic index [4]: below 10 |
| CC(C)C[C@H](NC(=O)[C@H](CCCCN)NC(=O)[C@@H]1CCCN1)C(=O)N[C@H](C(=O)O)[C@@H](C)O [(18), Pro-Lys-Leu-Thr] (H-PKLT-OH) | -19.4 | – | -11.7 | – |
| N=C(N)NCCC[C@H](N)C(=O)N[C@@H](CCCCN)C(=O)N[C@@H](CC(=O)O)C(=O)N[C@@H](CSSC[C@H](NC(=O)[C@H](CC(=O)O)NC(=O)[C@H](CCCCN)NC(=O)[C@@H](N)CCCNC(=N)N)C(N)=O)C(N)=O [(12)] (I: H-RKDC-NH2 / II: H-RKDC-NH2; disulfide I:4-II:4) | – | 35.3 | -40.1 | Effect on the primary antibody production, Change in relation to the untreated control % [5]: -10.7% |
| C[C@@H](O)[C@H](NC(=O)[C@H](CCCCN)NC(=O)[C@@H](N)CCCCN)C(=O)N[C@@H](CCC(=O)O)C(=O)O [(19), Lys-Lys-Thr-Glu] (H-KKTE-OH) | -22.9 | – | -18.6 | Effect on the primary antibody production, Change in relation to the untreated control % [5]: -10.8% |
